Assay results as given in PMC5970136, “Molecular basis of dimer formation during the biosynthesis of benzofluorene-containing atypical angucyclines” (Nature Communications, 2018).

Experiments:
Assay in all cases: microbe, parasite or virus in culture
Parameters in all cases: broth microdilution in Mueller-Hinton broth, minimum inhibitory concentration
S. aureus ATCC 29213 = test system: T1, S. aureus ATCC 29213; details: Staphylococcus aureus, ATCC29213, 18 h
T1 construct: ATCC 29213
Method: (§1) Antimicrobial activities were measured against seven indicator strains (Staphylococcus aureus ATCC 29213, Escherichia coli ATCC 25922, Enterococcus faecalis ATCC 29212, Acinetobacter baumannii ATCC 19606, Bacillus subtilis SCSIO BS01, Micrococcus Luteus SCSIO ML01, and methicillin resistant S. aureus ATCC 43300) by the broth microdilution method[8],[9]. Bacterial strains were grown to achieve an optical absorbance of 0.04−0.06 at 600 nm on a rotary shaker at 37 °C. […] The minimum inhibitory concentration (MIC) values were measured after 18 h cultivation. Each compound was tested in triplicates with TMP as a positive control. […] A proof of concept experiment was carried out in which FST D (7) was incubated with the antibacterial agent trimethoprim (TMP, 34). Two products 35 and 36 isolated from this reaction (Fig. 6a, Supplementary Fig. 128) were structurally characterized as hybrids of TMP and FST (Fig. 6a; Supplementary Figs. 129−142). Similar results were obtained upon incubation of TMP (34) with compound 27, but not with compound 28 (Supplementary Fig. 143). These findings again support the hypothesis that spontaneous formation of a p-QM precursor is a prerequisite for the production of FST hybrids.

E. coli ATCC 25922 = test system: T2, E. coli ATCC 25922; details: Escherichia coli, ATCC25922, 18 h
T2 construct: ATCC 25922
Method: as §1

A. baumannii ATCC 19606 = test system: T3, A. baumannii ATCC 19606; details: Acinetobacter baumannii, ATCC19606, 18 h
T3 construct: ATCC 19606
Method: as §1

M. Luteus SCSIO ML01 = test system: T4, M. Luteus SCSIO ML01; details: Micrococcus luteus, 18 h
T4 construct: SCSIO ML01
Method: as §1

[1] = test system: T5, Staphylococcus aureus MRSA ATCC 43300; details: 18 h
T5 construct: ATCC 43300 (methicillin resistant)
Method: as §1

B. subtilis SCSIO BS01 = test system: T6, B. subtilis SCSIO BS01; details: Bacillus subtilis, SCSIOBS01, 18 h
T6 construct: SCSIO BS01
Method: as §1

E. faecalis ATCC 29212 = test system: T7, E. faecalis ATCC 29212; details: Enterococcus faecalis, ATCC29212, 18 h
T7 construct: ATCC 29212
Method: as §1

Measured: MIC

COc1cc(Cc2cnc(N)nc2N)cc(OC)c1OC [Trimethoprim]
64 µg/mL: A. baumannii ATCC 19606
0.25 µg/mL: E. coli ATCC 25922
2 µg/mL: E. faecalis ATCC 29212
1 µg/mL: M. Luteus SCSIO ML01
0.5 µg/mL: all other assays above

Cc1ccc2c3c(c(O)cc2c1O)-c1c(O)cccc1C3=O [compound 12, isoprefluostatin]
32 µg/mL: B. subtilis SCSIO BS01
> 64 µg/mL: E. coli ATCC 25922 | A. baumannii ATCC 19606 | E. faecalis ATCC 29212
64 µg/mL: all other assays above

C[C@]12O[C@H]1[C@H](Nc1ccc(C(=O)O)cc1)c1c(cc(O)c3c1C(=O)c1cccc(O)c1-3)C2=O [compound 14, FST S]
> 64 µg/mL: all assays above

CC(=O)NN1c2c(c3c(c4c2C(=O)C(C)(O)C=C4)C(=O)c2cccc(O)c2-3)OC2C1c1c(cc(O)c3c1C(=O)c1cccc(O)c1-3)C(=O)C2(C)O (centres unmarked) [compound 15, difluostatin B]
> 64 µg/mL: all assays above

Cc1cc(O)cc(O)c1C(=O)c1c(O)cccc1Cc1cc2c(c(=O)o1)C1c3c(cc(O)c4c3C(=O)c3cccc(O)c3-4)C(=O)C(C)(O2)C1O (centres unmarked) [compound 16, difluostatin C]
> 64 µg/mL: all assays above

CC12OC1C(O)c1c(cc(O)c3c1C(=O)c1c(C4c5c(cc(O)c6c5C(=O)c5cccc(O)c5-6)C(=O)C5(C)OC45)ccc(O)c1-3)C2=O (centres unmarked) [compound 24, difluostatin F]
> 64 µg/mL: all assays above

COC1c2c(cc(O)c3c2C(=O)c2c(C4c5c(cc(O)c6c5C(=O)c5cccc(O)c5-6)C(=O)C5(C)OC45)ccc(O)c2-3)C(=O)C2(C)OC12 (centres unmarked) [compound 26, difluostatin H]
64 µg/mL: B. subtilis SCSIO BS01
> 64 µg/mL: all other assays above

Cc1ccc2c(c1)OC1(C)C(=O)c3cc(O)c4c(c3C(N2)C1O)C(=O)c1cccc(O)c1-4 (centres unmarked) [compound 33, 33]
> 64 µg/mL: all assays above
